Laboratory results published in patent US11759437B2, “Preventive and therapeutic approach for aberrant cell differentiation and ISR-associated diseases” (The University of Hong Kong, priority 2016, dated 2023).

How the values were obtained:
prion-infected mice = details: cited from earlier work
13del mice = assay type: in vivo
wild-type mice = assay: ISRIB treatment of wild-type littermates; assay type: in vivo, mouse
Experimental: The potential of ISRIB to modify the chondrodysplasia phenotype was tested by treating 13del and wild-type littermates with ISRIB or vehicle twice daily by intraperitoneal injection from E13.5 (onset of expression of 13del transgene) to postnatal day 20 (p20) (FIG. 8A).
ISRIB (SML0843, Sigma) was dissolved in DMSO to make a 5 mg/ml stock and stored at 4-degree. Animals were intraperitoneally injected with ISRIB ((103, 104) (2.5 mg/kg, diluted in 0.9% saline) or vehicle (5% DMSO in saline) from E13.5 till p20 stage. The animals were collected at p10 and p20 stages for further analysis.

mice = details: cited from earlier work
[1] = system: Mouse models of chondrodysplasia; details: cited from earlier work
[2] = system: congenital skeletal dysplasias; details: cited from earlier work
Fgf21 = Fgf21 expression after ER stress inducer tunicamycin in fibroblasts and ATDC5 cells; assay type: cell-based, mouse; details: NIH3T3 and MEF cells and ATDC5 cells, tunicamycin treatment
Experimental: FGF21 is a hormone with roles in glucose and lipid metabolism (74) and plays an survival role in the response to diverse stressful conditions, such as amino acid deprivation, mitochondrial stress and ER stress associated with diseases such as diabetes, cardiovascular disease (75-77).
Quantitative PCR was performed using SYBR-Green master mixture according to the manufacturer's instruction (Takara). Appropriate amounts of cDNA (or DNA) and primers were mixed with distilled water up to 10 μl and combined with equal amount of SYBR-Green master mixture. The reaction was run on the StepOne Real Time PCR system (Applied Biosystems, A&B). The Ct (cycle threshold) is defined as the cycle number required for the fluorescent signal to cross the threshold. The relative expression levels of target genes are calculated by normalizing to the expression level of GAPDH using delta-delta-Ct (Relative expression level=2^−(Cttarget−CtGapdh)). Melting curve was also measured to detect the specificity of the primers.

[3] = 13del mice, after 20-days ISRIB treatment

Question: Which “effect of restoring protein synthesis through PERK inhibition” value (prion-infected mice) does the source give for `Cn1cc(-c2ccc3c(c2)CCN3C(=O)Cc2cccc(C(F)(F)F)c2)c2c(N)ncnc21` [GSK2606414] here?
Answer: Its value is “neuroprotective”.

Question: What about the side effects (prion-infected mice) of the same compound?
Answer: Its side effects is “weight loss and pancreatic toxicity”.

Question: For `O=C(COc1ccc(Cl)cc1)N[C@H]1CC[C@H](NC(=O)COc2ccc(Cl)cc2)CC1` [ISRIB], which “amount of ATF4 and CHOP protein” value (13del mice; 13del HZ, p10) is on record?
Answer: Its value is “reduced”.

Question: And the “transcripts and protein level of downstream targets (ATF3, ERO1l and FGF21)” value (13del mice; 13del HZ, p10)?
Answer: The value was “down-regulation”.

Question: What about the “Atf3+ cells in L3-L6 NP, growth plates or endplates” value (13del mice; 13del lumbar IVD, after ISRIB treatment) of the same compound?
Answer: Its value is “no Atf3^+ cell can be detected”.

Question: And the “ectopic NP expression of Opn” value (13del mice; 13del lumbar NP, 20-days treatment)?
Answer: The value was “greatly reduced”.

Question: And the “number of reprogrammed chondrocytes in the growth plates and endplates” value (13del mice; 13del mice)?
Answer: Its value is “reduced”.

Question: And the “chondrocyte-like cells present in iAF” value (13del mice; [3])?
Answer: Its value is “fewer”.

Question: And the “regularity of inner annulus fibrosus (iAF)” value (13del mice; [3])?
Answer: Its value is “more regular”.

Question: What about the “Bip transcripts in HZ” value (13del mice; 13del mice, p10, in situ hybridization) of the same compound?
Answer: The value was “not affected”.

Question: And the “HZ expansion in tail intervertebral disc growth plates” value (13del mice; 13del mice, p10 and p20)?
Answer: The value was “reduced”.

Question: What about the “HZ expansion in the limb growth plates” value (13del mice; 13del mice, p10 and p20) of the same compound?
Answer: The value was “greatly reduced”.

Question: What about the “number of SOX9+, Col2a1+ and Ppr+ cells in the HZ” value (13del mice; 13del mice, p10 and p20) of the same compound?
Answer: The value was “diminished”.

Question: And the “number of Sox9+ and Col2a1+ premature cells in tail intervertebral disc growth plates” value (13del mice; 13del mice, p10 and p20)?
Answer: The value was “decreased”.

Question: And the “IVD abnormalities in 13del lumbar spine (endplate expansion, iAF structure)” value (13del mice; ISRIB 2.5 mg/kg)?
Answer: Its value is “eased”.

Question: What about the “overall adverse effect in treated mice” value (13del mice; ISRIB 2.5 mg/kg i.p., E13.5 to p20) of the same compound?
Answer: The value was “without any obvious adverse effect”.

Question: And the “apoptosis in 13del HC” value (13del mice; TUNEL)?
Answer: Its value is “did not induce apoptosis”.

Question: And the “dwarfism of 13del mice (body length)” value (13del mice; new born to juvenile stages, ISRIB 2.5 mg/kg i.p. twice daily, E13.5 to p20)?
Answer: Its value is “markedly reduced”.

Question: And the “skeletal deformities, radiographic analyses (length of tibia/femur and spine, genu varum, pelvic bone orientation, coxa vara)” value (13del mice; p20, ISRIB 2.5 mg/kg i.p.)?
Answer: The value was “ameliorated”.

Question: And the “effect on the limb growth plates in wild-type mice” value (wild-type mice; histology, p10)?
Answer: The value was “no observable effect”.

Question: And the “adverse effects on weight gain or body growth” value (wild-type mice; wild-type mice, ISRIB 2.5 mg/kg i.p. twice daily, E13.5 to p20)?
Answer: Its value is “no adverse effects”.

Question: And the neurotrophic effects (mice)?
Answer: Its neurotrophic effects is “significant neurotrophic effects”.

Question: What about the overall toxicity (mice) of the same compound?
Answer: Its overall toxicity is “no overall toxicity”.

Question: And the pharmacokinetic properties (mice)?
Answer: The pharmacokinetic properties was “acceptable”.

Question: For `O=C(O)CCCc1ccccc1` [phenylbutyric acid], which efficacy in chondrodysplasia [1] is on record?
Answer: The efficacy in chondrodysplasia was “ineffective”.

Question: Which “effect in cases with severe spinal deformities” value ([2]; in vivo) does the source give for “Growth hormone: Growth hormone (GH) therapy used to treat dwarfism” here?
Answer: Its value is “worsened kyphosis and lordosis”.

Question: And the “efficacy for height gain” value ([2]; most congenital skeletal dysplasias)?
Answer: Its value is “ineffective”.

Question: Which “increase of Fgf21 expression” value (Fgf21) does the source give for tunicamycin here?
Answer: Its value is greater than 100 fold.
